Experimental findings from patent US11339124B2, “3-(benzylamino)-4-(cyclohexylamino)-n-(2-(piperazin-1-yl)ethyl)benzenesulfonamide derivatives and related ferrostatin-1 analogues as cell death inhibitors for treating e.g. stroke” (VIB VZW, priority 2018, dated 2022) are described below.

Structures are written as SMILES.

Data set [1] can be described thus: Pharmacokinetics and tissue distribution after single-dose iv injection in mice. As to conditions: iv ~10 mg/kg; for Tissue distribution profile, levels in organs: 24 h after injection; for Crossing of the blood-brain barrier: brain tissue (FIG. 4), 10 mg/kg. The class given is in vivo. As to the method: FIG. 4: Tissue distribution of ferrostatin-analogues. Equimolar amounts of Ferrostatin (Fer-1), compound 39 (depicted as UAMC-3203) and compound 38 (depicted as UAMC-3206) (˜10 mg/kg) were injected intravenously 2 h (left panel) or 24 h (right panel) before tissue collection (heart, liver, lung, muscle, kidney and brain). Tissues were collected, snap frozen in liquid nitrogen, homogenized and stored at −80° C. until analysis. The tissue samples for LC-MS were further processed by protein precipitation by diluting 20 μL of the homogenate with 80 μL ACN containing IS (tolbutamide). After centrifugation, the supernatant was further diluted in the appropriate solvent.
The detected levels of UAMC-3203 vary between 3-60 ng/mg tissue depending on the organ, which is up to […] or 6-fold higher than the dose injected.

The test system of data set [2] is IMR-32 Neuroblastoma cells. The data set is described as follows: Erastin-induced ferroptosis in IMR-32 neuroblastoma cells (Sytox Green cell death readout). As to conditions: Homo sapiens; IMR-32 cells, 10 μM erastin, compounds 1 nM to 1 μM, triplicate; read-out: IC50, antiferroptotic activity in response to erastin-induced ferroptosis. Type of data set: cell-based. As to the method:
In the present invention the potency of a compound inhibiting (or reducing) ferroptosis and/or oxytosis are determined in in vitro or in vivo assays. Typically in vitro assays are used to measure the potency of a candidate compound. Examples of suitable in vitro assays are cellular assays. One non-limiting example of an assay involves the use of the IMR-32 neuroblastoma cell line. The latter is stimulated to enter into ferroptosis upon stimulation with 10 μM erastin, a documented ferroptosis inducer (see for example Dixon et al (2012) Cell 149, 1060-1072 and ferroptosis inhibitors are evaluated for the prevention of erastin induced ferroptosis. Yet another assay is based the glutamate-induced cell death in the hippocampal cell line HT22 and ferroptosis/oxytosis inhibitors are evaluated for the prevention of cell death (see Henke N. et al (2013) Cell Death and Disease 4, e470). Still another assay is based on the sorafinib induced cell death (described to be iron dependent cell death) in hepatocellular carcinoma cells and ferroptosis inhibitors are evaluated for the prevention of cell death (see Louandre C. et al (2013) Int. J. Cancer 133, 1732). The calculated potency of a compound inhibiting ferroptosis and/or oxytosis is typically depicted as an IC50 value. Examples of suitable in vivo assays are typically pre-clinical disease models of for example mice for the diseases benefiting the application of ferroptosis and/or oxytosis inhibitors, as described herein. One non-limiting example of an in vivo assay is based on inducing liver damage in mice by administering the herbicide diquat dibromide monohydrate and ferroptosis inhibitors are evaluated based on reduced levels of liver transaminases in serum (see Ran Q et al (2004) J. Biol. Chem. 279, 53, 55137).
The IC50 values for the individual compounds of the invention were determined in the neuroblastoma, IMR-32 cell line. In brief, IMR-32 cells were subjected to 10 μM erastin, the latter compound is known to induce ferroptosis. A concentration gradient (ranging from 1 nM to 1 μM) of the compounds was applied to the cells. These experiments were performed in a 96-well format (in triplicate), and cell death was analyzed in a fluorescent plate reader by use of a fluorescent cell death dye (1.5 μM Sytox Green). The IC50 values depicted in Table 1 are the concentration values for the individual compounds which are able to overcome ferroptosis.

Data set [3] in a line: Plasma stability, mouse plasma. The conditions noted are these: 37° C., remaining parent compound, read-out: Plasma stability (% recovery after 6 h), Mouse. The class given is in vitro ADME. The method, then:
(§1) 5 μl of a 10 mM stock solution of the compound in DMSO was added to 995 μl of plasma to obtain a 50 μM final solution. The mixture was gently shaken for 6 h at 37° C. Aliquots of 100 μl were taken at various time points (0, 0.5 h, 1 h, 2 h, 3 h and 6 h) and diluted with 400 μl of cold methanol (stored at 4° C.). The suspension was centrifuged at 14000 rpm for 5 min. 50 μl of the supernatant was diluted with 950 μl of methanol and analysed with LC/MS/MS. The samples were analysed in triplicate. The experiment was done in duplicate. […] Enalapril maleate was used as a control in mice, rats, and in human.

The subject of data set [4] is acute iron poisoning induced organ damage. The data set is described as follows: Acute iron poisoning (FeSO4) induced organ damage, plasma LDH and creatine kinase. The class given is in vivo. The conditions noted are these: for Protection against organ damage: plasma lactate dehydrogenase (LDH) and creatine kinase levels, prophylactic setting: ~10 mg/kg iv 15 min before FeSO4 300 mg/kg ip, plasma 2 h after challenge (FIG. 5A); for Protection against organ damage: plasma lactate dehydrogenase (LDH) and creatine kinase levels, therapeutic setting: ~10 mg/kg iv 30 min after FeSO4 300 mg/kg ip, plasma 8 h after challenge (FIG. 5B). The method, then:
Equimolar amounts of ferroptosis inhibitors (˜10 mg/kg) were injected iv 15 min before ip injection of FeSO4 (300 mg/kg). Plasma was collected 2 h after FeSO4-challenge and analyzed for the presence of lactate dehydrogenase (LDH) and creatine kinase. Fer-1 is ferrostatin, 3234 is compound 37,3206 is compound 38 and 3203 is compound 39 (see Table 1 for numbering and structure). […] Equimolar amounts of ferroptosis inhibitors (˜10 mg/kg) were injected iv 30 min after ip injection of FeSO4 (300 mg/kg). Plasma was collected 8 h after FeSO4-challenge and analyzed for the presence of lactate dehydrogenase (LDH) and creatine kinase.
We identified acute iron poisoning as a novel experimental model for in rhabdomyolysis-induced kidney failure.

Data set [5] can be described thus: Plasma stability, human plasma. Type of data set: in vitro ADME. The conditions noted are these: 37° C., remaining parent compound, read-out: Plasma stability (% recovery after 6 h), Human. As to the method: as §1
The nature of data set [6]: Kinetic solubility (turbidimetric method). Type of data set: physicochemical. As to conditions: 10 mM PBS pH 7.4, 2% DMSO, test range 3.125-200 μM, 2 h at 37° C. The method, then:
A turbidimetric method was used. First a series of DMSO compound stock solutions was prepared ([…]). An aliquot of 4 μL stock solution was added to 196 μL PBS buffer (pH 7.4). A series of concentrations were prepared (3.13-200 μM), including a blank on a microtiter plate. (2% DMSO-D6) The microtiter plate was shaken for 10 seconds and incubated for 2 hours at 37° C. When there was no turbidity measured at a given concentration the sample was assumed to be dissolved.

For `Cl.NCCNS(=O)(=O)c1ccc(NC2CCCCC2)c(NCc2ccccc2)c1` [Compound 38, N-(2-aminoethyl)-3-(benzylamino)-4-(cyclohexylamino)benzenesulfonamide Hydrochloride], the “Tissue distribution profile, levels in organs” value in data set [1] is given as “detected in very low levels”. The IC50 – broadly, the concentration that gives 50% inhibition – in data set [2] is 12 nM. The recovery at 6 h, 50 μM in data set [3] and in data set [5] was 100% in each case. In addition, in data set [4], the “Protection against organ damage: plasma lactate dehydrogenase (LDH) and creatine kinase levels, prophylactic setting” value (shortened to “Protection … prophylactic setting”) is listed as “more effective”. Besides, in data set [4], the “Protection against organ damage: plasma lactate dehydrogenase (LDH) and creatine kinase levels, therapeutic setting” value (“Protection … therapeutic setting” for short) is listed as “more effective”. The “Solubility (kinetic)” value in data set [6] is more than 200 µM.
For the compound `CNCCNS(=O)(=O)c1ccc(NC2CCCCC2)c(NCc2ccccc2)c1.Cl` [Compound 37, 3-(benzylamino)-4-(cyclohexylamino)-N-(2-(methylamino)ethyl)benzenesulfonamide Hydrochloride], in data set [1], the “Tissue distribution profile, levels in organs” value was “not detected in any organ”. The IC50 in data set [2] worked out at 3 nM. Further, the recovery at 6 h, 50 μM in data set [3] is 100%; in data set [5], 90.3%. For the same compound, the “Protection … prophylactic setting” value in data set [4] is given as “more effective”. Also, the “Protection … therapeutic setting” value in data set [4] is “more effective”. Moreover, the “Solubility (kinetic)” value in data set [6] is more than 200 µM.
Take `Cl.O=S(=O)(NCCN1CCNCC1)c1ccc(NC2CCCCC2)c(NCc2ccccc2)c1` [Compound 39, 3-(benzylamino)-4-(cyclohexylamino)-N-(2-(piperazin-1-yl)ethyl)benzenesulfonamide Hydrochloride]: in data set [1] (2 h after injection), the “Tissue distribution profile compared to -3206 and benchmark Fer-1” value is on record as “superior profile”. In data set [1], the “Tissue distribution profile, levels in organs” value is reported as “still present in range of 2- to 100-fold less than the dose injected”. In addition, the “Crossing of the blood-brain barrier” value in data set [1] (Hydrochloride) is listed as “efficiently crosses the blood brain barrier”; in data set [1] (listed as UAMC-3203, Hydrochloride) it was “seems to cross the blood-brain barrier”. Further, the concentration at 2 h in data set [1] (mouse, tissues (heart, liver, lung, muscle, kidney, brain), 2 h after injection, read-out: Detected levels in tissue depending on the organ) was in the range of 3000 to 60000 ng/g. Also, the IC50 in data set [2] was determined as 10 nM. Also, the recovery at 6 h, 50 μM came to 100% in data set [3] and 84.2% in data set [5]. Moreover, in data set [4], the “Protection … prophylactic setting” value is given as “more effective”. Moreover, in data set [4], the “Protection … therapeutic setting” value was “more effective”. Besides, the “Solubility (kinetic)” value in data set [6] was more than 200 µM.
